Assay results reported in patent publication US11827628B2, “Compositions and methods for inhibition of the JAK pathway” (Rigel Pharmaceuticals, Inc., priority 2005, dated 2023).
pIC50: −log10 of the molar value.

Legend:
Primary human T-cells = experiment: Primary Human T-Cell Proliferation Assay Stimulated with IL-2 (CellTiter-Glo); assay type: cell-based; settings: primary human T-cell proliferation stimulated with IL-2; read-out: IC50, Example 42
Outline: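 Peripheral blood T-cells pre-activated with anti-CD3/anti-CD28 and IL-2 were washed free of IL-2, then cultured with compound plus IL-2 for 72 hours at 37° C, duplicate wells. Viability read as ATP by CellTiter-Glo luminescence; IC50 reported.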

[1] = test system: up-regulation of ICAM-1 (CD54) by IFNγ in A549 lung epithelial cells; experiment: A549 Epithelial Line Stimulated with IFNγ (ICAM-1 surface expression, FACS); assay type: cell-based, human; settings: A549 epithelial line stimulated with IFNγ; ICAM-1 expression by FACS; read-out: IC50, Example 43
Outline: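 A549 cells pre-incubated 1 h with compound (30 μM to 14 nM, 5% FBS, 0.3% DMSO), then stimulated with IFNγ (75 ng/mL) for 24 h. Surface ICAM-1 stained with APC anti-CD54 and read by flow cytometry; geometric mean of live-gated events plotted against concentration for EC50.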

SMILES	pIC50 [1]	pIC50 (Primary human T-cells)
Cc1noc(COc2ccc(Nc3nc(Nc4ccc(S(N)(=O)=O)cc4)ncc3F)cc2)n1 [Compound I-268, N2-(4-Aminosulfonylphenyl)-5-fluoro-N4-(4-[3-methyl-1,2,4-oxadiazol-5-yl]methyleneoxyphenyl)-2,4-pyrimidinediamine]	5.29	6.85
Cc1ccc(Nc2ncc(F)c(Nc3ccc(OC4CCCN(C)C4)c(Cl)c3)n2)cc1S(N)(=O)=O (racemic) [II-3, Racemic N2-(3-aminosulfonyl-4-methylphenyl)-N4-{3-chloro-4-[(1-methylpiperidin-3-yl)oxy]phenyl}-5-fluoro-2,4-pyrimidinediamine]	4.92	6.04
Cc1nc(COc2ccc(Nc3nc(Nc4cccc(S(N)(=O)=O)c4)ncc3F)cc2)no1 [Compound I-276, N2-(3-Aminosulfonyl)phenyl-5-fluoro-N4-[4-(5-methyl-1,2,4-oxadiazol-3-yl)methoxy]phenyl-2,4-pyrimidinediamine]	5.09	6.98
CNS(=O)(=O)c1cc(Nc2ncc(F)c(Nc3ccc(OCc4nc(C)no4)cc3)n2)ccc1C [Compound I-260, 5-Fluoro-N2-[3-N-(methyl)aminosulfonyl-4-methylphenyl)-N4-[4-(3-methyl-1,2,4-oxadiazol-5-yl)methyleneoxyphenyl]-2,4-pyrimidinediamine]	5.07	6.65

The next lines start with results.

pIC50 [1]	SMILES	pIC50 (Primary human T-cells)
4.84	N#CCc1ccc(Nc2nc(Nc3ccc(Cl)c(S(N)(=O)=O)c3)ncc2F)cc1 [III-8, N2-(3-Aminosulfonyl-4-chloro)phenyl-N4-(4-cyanomethyl)phenyl-5-fluoro-2,4-pyrimidinediamine]	6.04
5.44	N#CCCc1ccc(Nc2nc(Nc3cccc(S(N)(=O)=O)c3)ncc2F)cc1 [III-14, N2-(3-aminosulfonylphenyl)-N4-[4-(cyanoethylene)phenyl]-5-fluoro-2,4-pyrimidinediamine]	7.28
